Measured values reported in patent US11407792B2, “Regulating electron flow using fragmented proteins” (WILLIAM MARSH RICE UNIVERSITY, priority 2017, dated 2022).

What was measured:
[1] = tested on: sFd-35-ER; assay: Complementation of E. coli EW11 growth by sFd-35-ER with 4-HT and other estrogen receptor modulators; assay type: cell-based, Escherichia coli; conditions: for Activation of sFd-35-ER ET (growth complementation): agonists, antagonists and an endocrine disruptor; for Effect of estrogen receptor modulators on complementation of E. coli EW11 by sFd-35-ER, compared to DMSO alone: modulator 50 μM, 200 ng/mL aTc
Procedure: Growth assay. For all growth experiments, E. coli EW11 were freshly transformed with two plasmids, one encoding the e-donor and acceptor pair (FNR and SIR) and the other encoding either a native Fd, a C42A mutant of Ml Fd that is unable to coordinate a 2Fe-2S cluster, or an engineered Fd. Starter cultures were inoculated using single colonies obtained by selecting for colonies containing both plasmids on LB-agar plates. These starter cultures were grown in deep-well 96-well plates for 18 hours at 37° C. in 1 mL of a non-selective modified M9 medium (M9c), which contained sodium phosphate, dibasic (6.8 g/L), sodium phosphate, monobasic (3 g/L), sodium chloride (0.5 g/L), ammonium chloride (1 g/L), calcium chloride (0.1 mM), magnesium sulfate (10 mM), ferric citrate (24 mg/L), p-aminobenzoic acid (2 mg/L), inositol (20 mg/L), adenine (5 mg/L), uracil (20 mg/L), tryptophan (40 mg/L), tyrosine (1.2 mg/L), and the remaining 18 amino acids (80 mg/L each). For auxotroph complementation analysis, starter cultures that had been grown to stationary phase in M9c were diluted ˜1:100 using a 96-well replicator pin into 100 μL of a selective modified M9 medium (M9sa), which is identical to M9c but lacks cysteine and methionine. […] Optical density (OD) measurements were taken every 10 minutes. To select for the Fd and e-donor/acceptor plasmids, all growth steps included chloramphenicol and streptomycin at 34 μg/mL and 100 μg/mL, respectively.
To test whether this domain-insertion strategy can be used to diversify the chemical regulation of sFd-35, the ligand-binding domain (LBD) of the human estrogen receptor (ER) was inserted after residue 35 to create sFd-35-ER (FIG. 26E).
The activity of sFd-35-ER was evaluated by expressing this protein using an aTc-inducible promoter (FIG. 31B). […] This protein was also expressed as a fusion to RFP (sFd-35-ER-RFP) to evaluate how 4-HT affects protein expression.
To evaluate how these different modulators affect sFd-35-ER ET, sFd-35-ER growth complementation was evaluated in the presence of agonists, antagonists, and an endocrine disruptor (FIG. 32D).

[2] = tested on: E. coli EW11; assay: E. coli EW11 growth complementation by native, split or engineered Fds; assay type: cell-based, Escherichia coli; conditions: after 24 hours; Fd expressed from an aTc-inducible promoter, FNR and SIR constitutive
Procedure: Growth assay. […] Optical density (OD) measurements were taken every 10 minutes.
To rapidly assay ET mediated by engineered Fds, an Escherichia coli sulfide auxotroph (EW11; Barstow et al., 2011), which cannot grow in minimal medium containing sulfate as a sulfur source unless it expresses a synthetic ET chain consisting of a Fd-NADP+ reductase (FNR) electron donor, a Fd electron carrier, and a Fd-dependent sulfite reductase (SIR) electron acceptor, was used (FIG. 25A). Endogenous oxidoreductases were systematically removed from the genome of this strain to insulate Fd-dependent redox pathways from native redox reactions (Barstow et al., 2011). To evaluate Fd ET, Zea mays FNR and SIR were constitutively expressed and a TetR-repressible promoter was used to control the expression of plant-type 2Fe-2S Fds. […]
With this expression strategy, the inventors can quickly assess which split Fds require two fragments to function in complementation assays by assessing growth in the presence and absence of both inducers because growth depended upon the level of anhydrotetracycline (aTc) (FIG. 25B), and thus, the amount of Fd available to mediate ET. […] For these experiments, they assessed split Fd function in the presence of a constant high concentration of aTc, and varying concentrations of IPTG, which selectively drive the distinct promoters. […]

[3] = Midpoint potentials by protein film (square wave) voltammetry; assay type: physicochemical; conditions: relative to standard hydrogen electrode, pH 7.0, 23.5° C.
Procedure: Midpoint potentials. Electrochemical experiments were carried out anaerobically in a MBraun Labmaster glovebox using a PGSTAT12 potentiostat. A three-electrode configuration was used in a water-jacketed glass cell. A platinum wire was used as the counter electrode and a standard calomel electrode was used as the reference electrode. Reported potentials are relative to the standard hydrogen electrode. Baseline measurements were collected using an edge-plane graphite (EPG) electrode that was modified with a 100 mM neomycin trisulfate solution, rinsed, and placed into a glass cell containing a 23.5° C. mixed buffer solution (5 mM acetate/MES/MOPS/TAPS/CHES/CAPS) pH 7.0, with 100 mM NaCl. A 5 μL aliquot of 720 μM Ml-Fd or 5 mM sFd-35-ER was applied directly to the electrode surface with or without 1 μL of 50 mM 4-HT, the protein was allowed to […] for approximately one minute at room temperature before being placed into the buffer cell solution. Square wave voltammograms were collected at 23.5° C. with a frequency of 10 Hz and electrochemical signals were analyzed using QSoas.
To investigate if domain insertion affects the reduction potential of Ml-Fd, Ml-Fd and sFd-35-ER were characterized using protein film voltammetry. In the absence of 4-HT, the midpoint potentials of both Ml-Fd and sFd-35-ER (FIG. 27C) were −336 and −320 mV, respectively. […]

[4] = tested on: lysates derived from E. coli EW11 expressing FNR and SIR; assay: Sulfide production assay in cell lysates (sulfidefluor-7 fluorescence); assay type: biochemical, Escherichia coli; conditions: y=0.7×+12.252, r^2=0.983
Procedure: Cell lysates. Electrocompetent E. coli EW11 were transformed with the plasmid (pSAC01) that constitutively expresses Zea mays FNR and SIR. Cells were grown to stationary phase at 37° C. and 250 rpm in 2×YTPG medium (16 g/L tryptone, 10 g/L yeast extract, 5 g/L NaCl, 3 g/L KH2PO4, 7 g/L K2HPO4, and 18 g/L glucose) containing 100 μg/mL streptomycin. Cells from overnight cultures were diluted 1:100 in fresh 2×YTPG medium containing streptomycin, grown for 2 hours at 37° C. while shaking at 250 rpm until mid-log phase, and then shifted to 30° C. and grown for an additional 4 hours. […] Protein content in lysates was quantified using Bio-Rad Protein Assay Dye Reagent Concentrate (Bio-Rad), using bovine serum albumin (NEB) as a standard.
Sulfide production assay. […] Following NADPH or protein addition, reactions were arrayed in a Corning 96 well plate at room temperature (Cost ar #3603), transferred to an Infinite m1000 Pro plate reader (Tecan), and heated to 37° C. and shaken at 250 rpm with fluorescence readings (λex=495 nm, λem=520 nm) every 15 seconds. […]
SIR activity was monitored in desalted cell lysates using sulfidefluor-7 (Lin et al., 2013), a fluorescent probe for hydrogen sulfide. […]

[5] = Fish et al., 2005; cited from earlier work
[6] = Hirasawa et al., 2004; cited from earlier work

CC(C)(c1ccc(O)cc1)c1ccc(O)cc1 [bisphenol-A]
Activation of sFd-35-ER ET (growth complementation) [1]: activated
Effect of estrogen receptor modulators on complementation of E. coli EW11 by sFd-35-ER, compared to DMSO alone [1]: significantly enhance growth

CC[C@H](c1ccc(O)cc1)[C@@H](CC)c1ccc(O)cc1 [hexestrol]
Activation of sFd-35-ER ET (growth complementation) [1]: not activated
Effect of estrogen receptor modulators on complementation of E. coli EW11 by sFd-35-ER, compared to DMSO alone [1]: do not significantly enhance growth

Oc1ccc2c(c1)CC[C@H](c1ccccc1)[C@@H]2c1ccc(OCCN2CCCC2)cc1 [lasoxifene]
Activation of sFd-35-ER ET (growth complementation) [1]: activated
Effect of estrogen receptor modulators on complementation of E. coli EW11 by sFd-35-ER, compared to DMSO alone [1]: significantly enhance growth

Ml-Fd: Thermostable plant-type 2Fe-2S ferredoxin of Mastigocladus laminosus, UniProt P00248, SEQ ID NO: 11
k1/2, growth complementation as a function of aTc [2]: 1.8 ng/mL aTc
midpoint potential ([3]; absence of 4-HT): −336 mV
midpoint potential ([3]; presence of 4-HT): −330 mV
rate of SF7 fluorescence with increasing concentrations of Ml-Fd [4]: linearly increasing rate
temperature of optimal ET [5]: 65 °C

B1: SIR: Zea mays Fd-dependent sulfite reductase, electron acceptor (protein, UniProt O23813 51-635, looked up)
Sulfite reductase …: VSAPAKKDASEVKRSKVEIIKEKSNFLRYPLNEELVSEAPNINESAVQLIKFHGSYQQTDRDVRGQKNYSFMLRTKNPCGKVPNQLYLAMDTLADEFGIGTLRLTTRQTFQLHGVLKKNLKTVLSTVIKNMGSTLGACGDLNRNVLAPAAPYVKKDILFAQQTAENIAALLTPQSGAYYDLWVDGEKIMSAEEPPEVTKARNDNSHGTNFPDSPEPIYGTQYLPRKFKVAVTAAGDNSVDILTNDIGVVVVSDDAGEPIGFNIYVGGGMGRTHRVETTFPRLADPLGYVPKEDILYAIKAIVVTQRENGRRDDRKYSRMKYMIDRWGIDRFRAEVEKYYGKKFESFRPLPEWQFNSYLGWQEQGDGKLFYGVHVDNGRVGGQAKKTLREIIEKYNLDVSITPNQNLILCGIDQAWREPITTALAQAGLLEPKDVDPLNLTAMACPALPLCPLAQTEAERGILPILKRIRAVFNKVGIKDSESVVVRITGCPNGCARPYMAELGFVGDGPKSYQIWLGGTPNQSTLAESFMDKVKLDDIEKVLEPLFTYWNGTRQEGESFGSFTNRTGFDKLKEVVNKWAESPSAA
[4Fe-4S] E° [6]: −415 mV
siroheme potential [6]: −285 mV
